Results on one substance are retold here after US11931347B2, “Method of screening for agents for differentiating stem cells” (MINERVA BIOTECHNOLOGIES CORPORATION, priority 2015, dated 2024).

The subject of one assay is T47D breast cancer cells. The assay is described as follows: cancer cell migration, invasion assay (Platypus/Oris system). In kind it is cell-based, human. Particulars: FIG. 140. On the procedure:
We then tested an expanded panel of agents, including agents known to inhibit cancer growth or migration (FIG. 17) (Horm et al., 2012; Meng & Yue, 2014; Zhen et al., 2014), which is characteristic of aggressive or metastatic cancers. We also synthesized a series of novel small molecules, tested them in the stem cell drug screening assay, and then synthesized analogs of the best hits. These small molecules are pictured in FIGS. 18-27. Both the known compounds and the novel compounds were tested in the stem cell drug screening assay. The effects of the small molecules on naïve versus primed state stem cells are shown in the photographs of FIGS. 29-72. The small molecules pictured in FIGS. 17-27 and the biologicals were also tested in a cancer cell migration assay. A structure activity relationship table is seen in FIG. 28. Potent cancer cell migration is characteristic of cancer cell invasion of other tissues and of metastasis. Typical migration assays involve coating a cell culture plate with fibronectin, collagen or the like, plating cancer cells and making a scar across through the cells and measuring the time it takes for the cancer cells to invade the void space. An alternative approach that gives more reliable data is the Platypus System which is a special multi-well cell culture plate with a juxtaposed set of plugs that block off a circle in the center of each well. Cancer cells are plated while the plugs are in place, then they are removed after the cells attach to the plate surface. […] A bar graph summarizing the results of the known anti-migration compounds compared to the anti-MUC1* Fab E6 and the first few small molecules synthesized is shown in FIG. 73. The effect of two novel small molecules MN1186 and MN1194, compared to the known anti-migration molecule SU11274, is shown in FIG. 75A-75U. FIG. 75V is a graph showing the measured inhibition of cancer cell migration at time 0, 24 hours or 48 hours for a number of compounds. […] FIG. 75X is a graph showing how IC50's of the small molecules of the invention were measured and calculated.
Percent inhibition of cancer cell migration was performed in a wound healing assay. The Percent area that the invading cancer cells occupied, in the presence of a drug candidate compared to the controls, was quantified by Image J cell software which enables cell counting from photographs. IC50's were calculated by performing migration experiments at several compound concentrations and then applying Hill's equation. Inhibition of cancer cell proliferation was quantified by automated cell counting in the presence or absence of a drug candidate. Here, the potency of the drug candidate was simply scored 4 for the highest degree of inhibition and 0 for the lowest. […] The effect of each drug candidate was scored 0-4, with 4 being the highest in inhibiting cell proliferation (FIG. 28).
(§1) For the cancer cell migration experiment cancer cells were plated at varying densities into an Oris Cell Migration Assay Collagen-1 coated 96-well plate (Platypus Technologies LLC, Madison, Wis.). The Collagen-1 coated 96-well plate incorporates a specific vacuum plug which attaches to the bottom of each well, creating an area in which the cells cannot grow into. Once the cells have been plated at high densities into each well, they are allotted an 18-24 hour time period to attach to the bottom of the wells. Post-24 hour plugs are removed from the plate and then small molecule analogs are added to the wells. Images are taken of each well and represent time 0 (T=0) for each well. Images are taken of the wells at the 24, 48, 72, 96 and 120 hour time points. Data analysis is conducted using the images taken at these specific time point. Images are imported into ImageJ (Rasband, W. S., ImageJ, U. S. National Institutes of Health, Bethesda, Md., USA, http://imagej.nih.gov/ij/, 1997-2016.) and the area remaining free of cells is calculated. […]

Assay [1] concerns DU145 prostate cancer cells. As to the kind of experiment: cancer cell migration assay with Fabs and N-10 peptide. The class given is cell-based. As to conditions: FIG. 140. The protocol: (§2) The cancer sub-types that were tested were CHL-1 melanoma (MUC1*^+/NME7^+/NME7-X1^+), A2058 melanoma (MUC1*^+/NME7AB^+/NME7-X1^++), SK-OV-3 ovarian cancer (MUC1*^+/NME7^+/NME7-X1^+), A549 lung cancer (MUC1*^LO), T47D breast cancer (MUC1*^+++/NME7AB^+++/NME7-X1^+++), DU145 (MUC1*^++/NME7AB^+++/NME7-X1^+++) prostate cancer and PC-3 (MUC1*^−/NME7AB^+++/NME7-X1^+++) prostate cancer cells.
as §1, with “Data analysis is conducted using the images taken at these specific time point.” left out

The subject of assay [2] is PC-3 prostate cancer cells. Described as above. In kind it is cell-based. As to conditions: FIG. 140. On the procedure: as §2
as §1, with “Data analysis is conducted using the images taken at these specific time point.” left out

Assay [3] concerns MUC1* extracellular domain - NME1 dimers / NME7AB interaction. The assay is described as follows: direct binding (gold nanoparticle) assay of MUC1*-NME interaction. Also noted: species or system human. Particulars: previously shown. The source says: WO2009/042815 discloses that in a direct binding assay a series of carboline molecules inhibited the interaction between the extracellular domain of MUC1* and NME proteins, especially NME1 dimers and NME7AB. […] We tested a panel of ten small molecules, including three carbolines (FIG. 1), and biologicals for their ability to inhibit naïve stem cell pluripotency or growth compared to primed state stem cells.
Most of the novel compounds of the invention are carbolines or carboline-like molecules. […] However, in our nanoparticle assay, we can only determine that a compound disrupts the interaction between MUC1* extracellular domain peptide and NME1 dimers or NME7AB. We cannot tell if the compound does so by binding to MUC1* or its ligand. Recall that our compound hits are first identified in the stem cell drug screening assay for their ability to inhibit stem cell pluripotency or proliferation. […]
Recall that we had previously shown that some carbolines inhibited the binding of ligands NME1 or NME7AB to the extracellular domain of the MUC1* growth factor receptor. The assay we used was a gold nanoparticle assay that only gives a readout when the targeted interaction is disrupted, so it could not determine whether the carboloines disrupted binding of MUC1* to its ligands by binding to the ligand, NME7AB, or to MUC1*. […]

For “N-10 peptide: truncated MUC1* extracellular domain peptide QFNQYKTEAASRYNLTISDVSVSDVPFPFSAQSGA (SEQ ID NO:4) (N-10 peptide of PSMGFR in which ten amino acids at the N-terminus has been removed)”, in the assay with T47D breast cancer cells, the “inhibition of migration of T47D cells by Fabs and peptide” value was “inhibited migration”. The “inhibition of migration of DU145 prostate cancer cells by Fabs and peptide” value in assay [1] was “inhibited migration”. The “inhibition of migration of PC-3 cells by Fabs and peptide” value in assay [2] was “only the N-10 peptide inhibited migration”. Also, in assay [3], the “competitive inhibition of NME ligand binding to MUC1* extracellular domain” value is “inhibits their binding to their cognate receptors including the MUC1* extracellular domain”.
